Assay results as given in patent US20150189882A1, “ACTIVE INGREDIENT COMBINATIONS HAVING INSECTICIDAL AND ACARICIDAL PROPERTIES” (priority 2011, published 2015).
Like-named read-outs stand apart in the source and are kept apart here.

How the values were obtained:
[1] = system: Tetranychus urticae (OP-resistant); assay: Tetranychus urticae - test (OP-resistant), French bean leaf discs; type: in vivo; conditions: Tetranychus urticae, foliar; for mortality at 4 g/ha: 4 g ai/ha
Description: To produce a suitable preparation of active compound, 1 part by weight of active compound is mixed with the stated amount of solvent and emulsifier, and the concentrate is diluted with emulsifier-containing water to the desired concentration. To produce a suitable preparation of a biological suspension the cells or spores are diluted with emulsifier-containing water to the desired concentration.
Leaf discs of French beans (Phaseolus vulgaris) infected with all instars of the Two-spotted spider mite (Tetranychus urticae), are sprayed with a preparation of the active ingredient at the desired concentration.
After the specified period of time mortality in % is determined. 100% means that all spider mites have been killed; 0% means that none of the spider mites have been killed.

[2] = system: Myzus persicae; assay: whole plant or invertebrate; conditions: in Brassica rapa, foliar
[3] = system: Spodoptera frugiperda; assay: Spodoptera frugiperda - spray application; type: in vivo; conditions: Spodoptera frugiperda; for mortality at 4 g/ha: 4 g ai/ha; for mortality at 20 g/ha: 20 g ai/ha; for mortality at 100 g/ha: 100 g ai/ha
Description: To produce a suitable preparation of active compound, 1 part by weight of active compound is mixed with the stated amount of solvent and emulsifier, and the concentrate is diluted with emulsifier-containing water to the desired concentration. To produce a suitable preparation of a biological suspension the cells, viruses or spores are diluted with emulsifier-containing water to the desired concentration.
Cabbage (Brassica oleracea) leaf-discs are sprayed with a preparation of the active ingredient at the desired concentration. Once dry, the leaf discs are infested with larvae of the fall army worm (Spodoptera frugiperda).
After the specified period of time, mortality in % is determined. 100% means that all the caterpillars have been killed; 0% means that none of the caterpillars have been killed. The mortality values thus determined are recalculated using the Colby-formula.

[4] = system: soybean (Glycine max); assay: Seed treatment - germination test soybean; type: in vivo; conditions: 0.15 g ai/kg seeds
Description: Seeds of soybean (Glycine max) were treated by being mixed with the desired amount of active compound and spores and water. After drying, 25 seeds were sown into each pot filled with sandy loam.
After the specified period of time the level of activity expressed in % was determined. The level of activity was calculated on the basis of the number of soybean plants which have successfully germinated.

[5] = system: Phaedon cochleariae larvae; assay: whole plant or invertebrate
[6] = system: Tetranychus urticae (OP-resistant); assay: Tetranychus urticae - test; OP-resistant (TETRUR), bean plants sprayed; type: in vivo
Description: To produce a suitable preparation of active compound, 1 part by weight of active compound is mixed with the stated amount of solvent and emulsifier, and the concentrate is diluted with emulsifier-containing water to the desired concentration Ammonium salt and/or penetration enhancer in a dosage of 1000 ppm are added to the desired concentration if necessary. To produce a suitable preparation of a biological suspension the cells or spores are diluted with emulsifier-containing water to the desired concentration.
Bean plants (Phaseolus vulgaris) which are heavily infested with all stages of the two-spotted spider mite (Tetranychus urticae) are treated by being sprayed with the preparation of the active compound of the desired concentration.
After the specified period of time, mortality in % is determined 100% means that all the spider mites have been killed; 0% means that none of the spider mites have been killed.

[7] = system: soybean (Glycine max); assay: Shoot weight - soybean (seed treatment); type: in vivo; conditions: 0.3 g ai/kg seeds
Description: Seeds of soybean (Glycine max) were treated by being mixed with the desired amount of active compound and spores and water. After drying, each seed was sown into a pot filled with loamy sand. The pots were placed in the greenhouse with conditions appropriate for good plant growth.
After the specified period of time the plants were harvested and the shoot weight of the plants was determined. The weight is expressed in % whereupon the weight of the control is set 100%.

[8] = read-out: Mortality in % after 2^d
[9] = read-out: Mortality in % after 6^d
[10] = read-out: Mortality in % after 1^d

## Cc1cc(F)c(-n2nc(C(F)(F)F)nc2N)cc1[S+]([O-])CC(F)(F)F (racemic) [Compound (I)]
[1]; [8]
  mortality at 4 g/ha: 30%
[1]; [9]
  mortality at 4 g/ha: 30%
[1]; 20 g ai/ha, read-out: Mortality in % after 2^d
  mortality at 20 g/ha: 80%
[2]; [10]
  mortality at 4 g/ha: 0%
  mortality at 20 g/ha: 0%
  mortality at 100 g/ha: 0%
[2]; [9]
  mortality at 4 g/ha: 0%
  mortality at 20 g/ha: 0%
  mortality at 100 g/ha: 0%
[3]; 0.8 g ai/ha, read-out: Mortality in % after 6^d
  mortality at 0.8 g/ha: 0%
[3]; [8]
  mortality at 4 g/ha: 0%
  mortality at 20 g/ha: 0%
  mortality at 100 g/ha: 0%
[3]; [9]
  mortality at 4 g/ha: 0%
  mortality at 20 g/ha: 0%
  mortality at 100 g/ha: 0%
[4]
  % Germination after 3 days control was set 100%: 97%
[5]; [8]
  mortality at 0.8 g/ha: 0%
  mortality at 4 g/ha: 0%
  mortality at 20 g/ha: 0%
  mortality at 100 g/ha: 0%
[5]; [9]
  mortality at 4 g/ha: 0%
  mortality at 20 g/ha: 0%
  mortality at 100 g/ha: 0%
[6]; read-out: Mortality in % after 3^d
  mortality at 0.8 ppm: 40%
[6]; read-out: Mortality in % after 5^d
  mortality at 0.8 ppm: 40%
[7]
  Shoot weight after 21 days control was set 100%: 98%
